What was measured:
Assay in all cases: relative viability (nuclei count vs DMSO), 5 days (fraction); higher = more cells survive
NCI-H650 = tested on: NCI-H650
Summary of the method: (§1)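 The day after seeding in 1536-well plates, lung cancer cell lines were treated by pin tool with a single drug, or with a fixed anchor-drug dose together with five library-drug doses (not always all listed) in √10 steps. After 5 days, a combined fix-and-stain solution (final 0.05% Triton X-100, 1% formaldehyde, 1 ug/ml Hoechst) was added. Nuclei counted on 4× images gave relative viability as treated counts over vehicle counts, reported as the median of duplicate plates.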

NCI-H1993 = tested on: NCI-H1993
Summary of the method: as §1

NCI-H23 = tested on: NCI-H23
Summary of the method: as §1

NCI-H1355 = tested on: NCI-H1355
Summary of the method: as §1

LOU-NH91 = tested on: LOU-NH91
Summary of the method: as §1

NCI-H460 = tested on: NCI-H460
Summary of the method: as §1

NCI-H1915 = tested on: NCI-H1915
Summary of the method: as §1

EKVX = tested on: EKVX
Summary of the method: as §1

BEN = tested on: BEN
Summary of the method: as §1

LC-2-ad = tested on: LC-2-ad
Summary of the method: as §1

A-427 = tested on: A-427
Summary of the method: as §1

NCI-H1793 = tested on: NCI-H1793
Summary of the method: as §1

LCLC-97TM1 = tested on: LCLC-97TM1
Summary of the method: as §1

NCI-H1650 = tested on: NCI-H1650
Summary of the method: as §1

NCI-H1666 = tested on: NCI-H1666
Summary of the method: as §1

RERF-LC-KJ = tested on: RERF-LC-KJ
Summary of the method: as §1

LU99A = tested on: LU99A
Summary of the method: as §1

NCI-H838 = tested on: NCI-H838
Summary of the method: as §1

PC-3 [JPC-3] = tested on: PC-3 [JPC-3]
Summary of the method: as §1

SW 1573 = tested on: SW 1573
Summary of the method: as §1

NCI-H520 = tested on: NCI-H520
Summary of the method: as §1

NCI-H2347 = tested on: NCI-H2347
Summary of the method: as §1

NCI-H2228 = tested on: NCI-H2228
Summary of the method: as §1

Work on O=c1[nH]c2ccccc2n1C1CCN(CCCC(c2ccc(F)cc2)c2ccc(F)cc2)CC1 [Pimozide] + Cc1nc(Nc2ncc(C(=O)Nc3c(C)cccc3Cl)s2)cc(N2CCN(CCO)CC2)n1 [Dasatinib] (partner 0.075 µM) yielded a relative viability (NCI-H650; first compound 0.08 µM) of 0.501, a relative viability (NCI-H650; first compound 0.253 µM) of 0.454 and a relative viability (NCI-H650; first compound 0.8 µM) of 0.453. It also gave a relative viability (NCI-H650; first compound 2.53 µM) of 0.487, a relative viability (NCI-H650; first compound 8 µM) of 0.498 and a relative viability (NCI-H1993; first compound 0.08 µM) of 0.649. The relative viability (NCI-H1993; first compound 0.253 µM) was 0.597, the relative viability (NCI-H1993; first compound 0.8 µM) was 0.464 and the relative viability (NCI-H1993; first compound 2.53 µM) was 0.664. The relative viability (NCI-H1993; first compound 8 µM) was 0.332, the relative viability (NCI-H23; first compound 0.08 µM) was 0.887 and the relative viability (NCI-H23; first compound 0.253 µM) was 0.84. For the same compound, the relative viability (NCI-H23; first compound 0.8 µM) was 0.71, the relative viability (NCI-H23; first compound 2.53 µM) was 0.679 and the relative viability (NCI-H23; first compound 8 µM) was 0.802. For the same compound, the relative viability (NCI-H1355; first compound 0.08 µM) was 0.744, the relative viability (NCI-H1355; first compound 0.253 µM) was 0.722 and the relative viability (NCI-H1355; first compound 0.8 µM) was 0.671. For the same compound, the relative viability (NCI-H1355; first compound 2.53 µM) was 0.672, the relative viability (NCI-H1355; first compound 8 µM) was 0.732 and the relative viability (LOU-NH91; first compound 0.08 µM) was 0.44. It also gave a relative viability (LOU-NH91; first compound 0.253 µM) of 0.564, a relative viability (LOU-NH91; first compound 0.8 µM) of 0.537 and a relative viability (LOU-NH91; first compound 2.53 µM) of 0.572. The relative viability (LOU-NH91; first compound 8 µM) was 0.579, the relative viability (NCI-H460; first compound 0.08 µM) was 0.537 and the relative viability (NCI-H460; first compound 0.253 µM) was 0.486. For the same compound, the relative viability (NCI-H460; first compound 0.8 µM) was 0.529, the relative viability (NCI-H460; first compound 2.53 µM) was 0.483 and the relative viability (NCI-H460; first compound 8 µM) was 0.447. It also gave a relative viability (NCI-H1915; first compound 0.08 µM) of 0.328, a relative viability (NCI-H1915; first compound 0.253 µM) of 0.246 and a relative viability (NCI-H1915; first compound 0.8 µM) of 0.214. It also gave a relative viability (NCI-H1915; first compound 2.53 µM) of 0.322, a relative viability (NCI-H1915; first compound 8 µM) of 0.303 and a relative viability (EKVX; first compound 0.253 µM) of 0.489. It also gave a relative viability (EKVX; first compound 0.8 µM) of 0.544, a relative viability (EKVX; first compound 2.53 µM) of 0.536 and a relative viability (EKVX; first compound 8 µM) of 0.688. For the same compound, the relative viability (BEN; first compound 0.08 µM) was 0.279, the relative viability (BEN; first compound 0.253 µM) was 0.364 and the relative viability (BEN; first compound 0.8 µM) was 0.26. For the same compound, the relative viability (BEN; first compound 2.53 µM) was 0.329, the relative viability (BEN; first compound 8 µM) was 0.412 and the relative viability (LC-2-ad; first compound 0.08 µM) was 0.571. For the same compound, the relative viability (LC-2-ad; first compound 0.253 µM) was 0.518, the relative viability (LC-2-ad; first compound 0.8 µM) was 0.447 and the relative viability (LC-2-ad; first compound 2.53 µM) was 0.548. The relative viability (LC-2-ad; first compound 8 µM) was 0.493, the relative viability (A-427; first compound 0.08 µM) was 0.697 and the relative viability (A-427; first compound 0.253 µM) was 0.701. The relative viability (A-427; first compound 0.8 µM) was 0.681, the relative viability (A-427; first compound 2.53 µM) was 0.654 and the relative viability (A-427; first compound 8 µM) was 0.665. The relative viability (NCI-H1793; first compound 0.253 µM) was 0.388, the relative viability (NCI-H1793; first compound 0.8 µM) was 0.343 and the relative viability (NCI-H1793; first compound 2.53 µM) was 0.391. The relative viability (NCI-H1793; first compound 8 µM) was 0.35, the relative viability (LCLC-97TM1; first compound 0.08 µM) was 0.94 and the relative viability (LCLC-97TM1; first compound 0.253 µM) was 0.811. It also gave a relative viability (LCLC-97TM1; first compound 0.8 µM) of 0.797, a relative viability (LCLC-97TM1; first compound 2.53 µM) of 0.818 and a relative viability (LCLC-97TM1; first compound 8 µM) of 0.626. For the same compound, the relative viability (NCI-H1650; first compound 0.08 µM) was 0.274, the relative viability (NCI-H1650; first compound 0.253 µM) was 0.282 and the relative viability (NCI-H1650; first compound 0.8 µM) was 0.337. For the same compound, the relative viability (NCI-H1650; first compound 2.53 µM) was 0.298, the relative viability (NCI-H1650; first compound 8 µM) was 0.239 and the relative viability (NCI-H1666; first compound 0.08 µM) was 0.752. The relative viability (NCI-H1666; first compound 0.253 µM) was 0.814, the relative viability (NCI-H1666; first compound 0.8 µM) was 0.82 and the relative viability (NCI-H1666; first compound 2.53 µM) was 0.708. It also gave a relative viability (NCI-H1666; first compound 8 µM) of 0.684, a relative viability (RERF-LC-KJ; first compound 0.08 µM) of 0.775 and a relative viability (RERF-LC-KJ; first compound 0.253 µM) of 0.611. For the same compound, the relative viability (RERF-LC-KJ; first compound 0.8 µM) was 0.696, the relative viability (RERF-LC-KJ; first compound 2.53 µM) was 0.66 and the relative viability (RERF-LC-KJ; first compound 8 µM) was 0.501. The relative viability (LU99A; first compound 0.08 µM) was 0.539, the relative viability (LU99A; first compound 0.253 µM) was 0.527 and the relative viability (LU99A; first compound 0.8 µM) was 0.531. For the same compound, the relative viability (LU99A; first compound 2.53 µM) was 0.459, the relative viability (LU99A; first compound 8 µM) was 0.459 and the relative viability (NCI-H838; first compound 0.08 µM) was 0.266. For the same compound, the relative viability (NCI-H838; first compound 0.253 µM) was 0.282, the relative viability (NCI-H838; first compound 0.8 µM) was 0.225 and the relative viability (NCI-H838; first compound 2.53 µM) was 0.302. For the same compound, the relative viability (NCI-H838; first compound 8 µM) was 0.279, the relative viability (PC-3 [JPC-3]; first compound 0.08 µM) was 0.529 and the relative viability (PC-3 [JPC-3]; first compound 0.253 µM) was 0.912. The relative viability (PC-3 [JPC-3]; first compound 0.8 µM) was 0.867, the relative viability (PC-3 [JPC-3]; first compound 2.53 µM) was 0.892 and the relative viability (PC-3 [JPC-3]; first compound 8 µM) was 0.897. The relative viability (SW 1573; first compound 0.08 µM) was 0.522, the relative viability (SW 1573; first compound 0.253 µM) was 0.447 and the relative viability (SW 1573; first compound 0.8 µM) was 0.5. The relative viability (SW 1573; first compound 2.53 µM) was 0.437, the relative viability (SW 1573; first compound 8 µM) was 0.692 and the relative viability (NCI-H520; first compound 0.08 µM) was 0.216. For the same compound, the relative viability (NCI-H520; first compound 0.253 µM) was 0.184, the relative viability (NCI-H520; first compound 0.8 µM) was 0.185 and the relative viability (NCI-H520; first compound 2.53 µM) was 0.176. The relative viability (NCI-H520; first compound 8 µM) was 0.225, the relative viability (NCI-H2347; first compound 0.253 µM) was 0.34 and the relative viability (NCI-H2347; first compound 0.8 µM) was 0.295. It also gave a relative viability (NCI-H2347; first compound 2.53 µM) of 0.349, a relative viability (NCI-H2347; first compound 8 µM) of 0.343 and a relative viability (NCI-H2228; first compound 0.08 µM) of 0.524. For the same compound, the relative viability (NCI-H2228; first compound 0.253 µM) was 0.604, the relative viability (NCI-H2228; first compound 0.8 µM) was 0.448 and the relative viability (NCI-H2228; first compound 2.53 µM) was 0.345. The relative viability (NCI-H2228; first compound 8 µM) was 0.315.
